Patent US9708397B2, “Treatment of vasculoproliferative conditions with Lrg1 antagonists” (UCL Business PLC, priority 2010, dated 2017)

Test system: Lrg1/TGFβ1 induced Smad5 phosphorylation
Experiment: TGFβ-induced Smad5 phosphorylation in Lrg1 over-expressing GPNT endothelial cells
Assay type: cell-based, rat
Conditions: 5 ng/ml TGFβ, co-treatment
Excerpt: We next established whether we could block endothelial Smad5 phosphorylation induced by TGFβ with either an anti-Lrg1 antibody or by peptide sequences derived from Lrg1. Peptides derived from the leucine-rich repeat regions of the Lrg1 sequence (L1-24 and L169-192 of Appendix 2 (SEQ ID NOS:3-4) or L94-117 and L262-285 of Appendix 3 (SEQ ID NOS:3-4)), which are believed to be involved in protein-protein interactions, and from the highly conserved leucine-rich C-terminal domain (L227-252 of Appendix 2 (SEQ ID NO:5) or L320-345 of Appendix 3 (SEQ ID NO:5)) were generated (Appendix 2). […] Treatment of control cells with 5 ng/ml TGFβ results in a significant increase in Smad5 phosphorylation.

Sequence	effect on Smad5 phosphorylation	effect on Smad5 phosphorylation (listed as Lrg1 blocking peptide derived from the C-terminus)
KMFSQNDTRCAGPEAVKGQTLLAVAK (listed as Homo sapiens) [L227-252]	dramatic inhibitory effect	inhibits
LDMLDLSNNSLASVPEGLWASLGQ (listed as Homo sapiens) [L169-192, Peptide from a leucine-rich repeat region of human Lrg1]	partial effect	
LQELHLSSNGLESLSPEFLRPVPQ (listed as Homo sapiens) [L1-24, Peptide from a leucine-rich repeat region of human Lrg1]	no effect	
